Values of other authors, collected in patent US20210299023A1, “COMPOSITIONS AND METHODS FOR HAIR GROWTH” (Allergan, Inc., priority 2010, published 2021).

How the values were obtained:
eyelash = details: healthy patients
bald scalp of macaques = details: 0.05% latanoprost

SMILES | eyelash growth (eyelash) | hair growth (bald scalp of macaques) | density and thickness of hair (bald scalp of macaques; after 3 months of treatment)
CCNC(=O)CCC/C=C\C[C@@H]1[C@@H](/C=C/[C@@H](O)CCc2ccccc2)[C@H](O)C[C@@H]1O [Bimatoprost, bimatoprost] | increased length, thickness, and darkness | – | –
CC(C)OC(=O)CCC/C=C\C[C@@H]1[C@@H](CC[C@@H](O)CCc2ccccc2)[C@H](O)C[C@@H]1O [latanoprost] | – | significant hair growth | increased significantly
